Data set [1] in a line: Colour change of fortified yoghurt during storage at 37° C. for 120 days (CIELAB). The conditions noted are these: for colour change over time (in words): stored at 37° C. for 120 days. The format is physicochemical. How it is done:
(§1) Commercial yoghurt, Nestlé Jogolino™ Strawberry/Banana yoghurt containing 15% banana puree and 10% strawberry puree was iron fortified by the addition of different iron salts to 5 kg yoghurt as reported in the table below. The amounts were chosen to provide approximately 0.8 mg iron per 100 g yoghurt. […] Colour measurements were performed in 1×1 cm polystyrene cuvettes using an X-Rite ColorEye 7000A colorimeter. The colorimeter was set up with a D65 light source, 10 degree observer angle and with specular component included. The colour difference between the yoghurt with no iron salts and the iron fortified yoghurt was measured for each iron salt and expressed as ΔEab* using the CIELAB colour scale. 70 g samples of the fortified yoghurt samples described above were placed in 100 mL glass jars and stored at 37° C. for 120 days. Colour measurements were performed at a range of time intervals.

Data set [2] in a line: Colour difference of iron fortified strawberry/banana yoghurt vs yoghurt with no iron salts after flash pasteurization (CIELAB). The format is physicochemical. As for the experimental part: as §1, with “scale.” for “scale. 70 g samples of the fortified yoghurt samples described above were placed in 100 mL glass jars and stored at 37° C. for 120 days. Colour measurements were performed at a range of time intervals.”

The conditions of data set [3]: in vivo; cited from earlier work.

Consider two compounds from patent publication US9560869B2, “Food composition comprising desferrichrysin” (NESTEC S.A., priority 2013, dated 2017).

With `O=S(=O)([O-])[O-].[Fe+2]` [FeSO4 × H20, Ferrous sulphate, reference compound], the “colour change over time (in words)” value in data set [1] is on record as “much greater colour changes”.
Turning to Ferrichrysin, the “colour compared with yoghurt with no added iron (in words)” value in data set [2] (after flash pasteurization at 105° C. for 2 minutes) is given as “closest colour to the yoghurt with no added iron”. Further, in data set [2] (colour difference vs yoghurt with no iron salts, approx. 0.8 mg iron per 100 g yoghurt, flash pasteurized at 105° C. for 2 minutes), the “ΔEab*” value is reported as 1.57. The “colour change over time (in words)” value in data set [1] is reported as “smaller than the yoghurts fortified by the other iron salts”. Further, the “ΔEab* day 7” value in data set [1] (stored at 37° C., vs colour immediately after pasteurization, day 7) is 1.03. For the same compound, the “ΔEab* day 30” value in data set [1] (stored at 37° C., vs colour immediately after pasteurization, day 30) turned out to be 1.32. Also, the “ΔEab* day 60” value in data set [1] (stored at 37° C., vs colour immediately after pasteurization, day 60) worked out at 3.77. Moreover, the “ΔEab* day 120” value in data set [1] (stored at 37° C., vs colour immediately after pasteurization, day 120) is reported as 6.46. In data set [3], the “bioavailability of iron (in words)” value is listed as “good source of bioavailable iron”.
